# Columns and labels:
# Trypanosoma cruzi [1] = assay: GSK_TCAKS: pIC50 Trypanosoma cruzi viability assay using beta-GAL activity. This assay was run at single shot at 5uM compound concentration per well. The biological reagents consisted of NIH-3T3 host cells and trypomastigotes parasitic cells; both cell types were set to a 3.3 * 10^5 cells/mL dilution in assay DMEM by means of a CASY cell counter device using a 60um capillary. 6 uL of the mixture were dispensed per well (about 1 * 10^3 host-cells and 1 * 10^3 parasites) with a Multidrop Combi dispenser. […] In all wells, the percentage of DMSO never exceeded 0.5%. Plates incubated for four days at 37C, 5% CO2. The substrate used for the assay fluorescence intensity (FLINT) readout was resorufin-beta-D-galactopiranoside (Sigma-Aldrich) at 5uM per well. It was diluted in PBS supplemented with the soft detergent Igepal (Fluka).; type: functional, organism-based, Mus musculus; conditions: Tulahuen, NIH3T3
# [2] = test system: Trypanosoma brucei brucei; assay: GSK_TCAKS: pIC50 Trypanosoma brucei viability assay using luminiscence. Assay plates (1536-well) were prepared. T. brucei cultures were harvested and counted in a CASY cell counter. A parasite suspension was prepared at a final concentration of 5 * 10^4 cells/mL in complete HMI9 medium and 6uL was dispensed to all wells containing compounds using a Multidrop Combi dispenser. 6uL of HMI9 media with 0.4% DMSO were dispensed to control columns. Plates were incubated for 24 h at 37C, 5% CO2 then tempered for 10 min at room temperature. ATP content was quantified by adding 4 uL of CellTiter-Glo Reagent (Promega) according to the manufacturer's instructions. Luminescence was measured using a ViewLux.; type: functional, organism-based; conditions: Lister 427, CASY
# Leishmania donovani [3] = assay: (§1) GSK_TCAKS: pIC50 Leishmania donovani Imaging: THP-1 Host Macrophages. Assay plates (384-well) were prepared by adding 250nL of compound to each well. For single shot assay, the final compound concentration was 5 uM. […] Automated image analysis was performed with a script developed on Acapella High Content Imaging and Analysis Software (PerkinElmer). Output: THP-1 cell count were reported for each well.; type: functional, organism-based, Homo sapiens
# Trypanosoma cruzi [4] = assay: (§2) GSK_TCAKS: pIC50 Trypanosoma cruzi Imaging: Infected Cells. […] Cells were then washed once with PBS before infection. T. cruzi trypomastigotes, collected at days 5 to 8 after infection from LLC-MK2 parasite infected cultures, were allowed to swim out for 4h at 37C from a centrifuged pellet (2,500 rpm/10 min/room temperature). Trypomastigotes were then collected and counted in a CASY Cell Counter. Trypomastigotes, in supplemented DMEM, were added to H9c2 cultures in a multiplicity of infection of 1 and incubated for 18 h. Cells were washed once with PBS before incubation of the infected H9c2 monolayer with trypsin (Life-Technologies) to detach cells from the flask. Cells were counted in a CASY Cell Counter using a 150 um capillary and their density set at 5 * 10^4 cells per mL in supplemented assay DMEM. Infected H9c2 were dispensed into 384-well poly-lysine coated assay plates at 50uL per well using a Multidrop Combi dispenser. After seeding them, the plates were incubated at 37C, 5% CO2 for 72h. Cultures were then fixed and stained by addition of 50 uL of a solution containing 8% formaldehyde and 4 uM DRAQ5 DNA dye (BioStatus, UK) per well. […] Five images were collected per well for reliable statistical analysis. Automated image analysis was performed with a script developed on Acapella High Content Imaging and Analysis Software (PerkinElmer). Output: percentage of infected cells per well as a second infection marker.; type: functional, organism-based, Rattus norvegicus; conditions: H9c2, 4 h
# Trypanosoma cruzi [5] = assay: GSK_TCAKS: pIC50 Trypanosoma cruzi Imaging: Amastigotes/Cell. […] Cells were then washed once with PBS before infection. T. cruzi trypomastigotes, collected at days 5 to 8 after infection from LLC-MK2 parasite infected cultures, were allowed to swim out for 4h at 37C from a centrifuged pellet (2,500 rpm/10 min/room temperature). Trypomastigotes were then collected and counted in a CASY Cell Counter. Trypomastigotes, in supplemented DMEM, were added to H9c2 cultures in a multiplicity of infection of 1 and incubated for 18 h. Cells were washed once with PBS before incubation of the infected H9c2 monolayer with trypsin (Life-Technologies) to detach cells from the flask. Cells were counted in a CASY Cell Counter using a 150 um capillary and their density set at 5 * 10^4 cells per mL in supplemented assay DMEM. Infected H9c2 were dispensed into 384-well poly-lysine coated assay plates at 50uL per well using a Multidrop Combi dispenser. After seeding them, the plates were incubated at 37C, 5% CO2 for 72h. Cultures were then fixed and stained by addition of 50 uL of a solution containing 8% formaldehyde and 4 uM DRAQ5 DNA dye (BioStatus, UK) per well. […] Five images were collected per well for reliable statistical analysis. Automated image analysis was performed with a script developed on Acapella High Content Imaging and Analysis Software (PerkinElmer). Output: number of amastigotes per cell as infection level measurement.; type: functional, organism-based, Rattus norvegicus; conditions: H9c2, 4 h
# Leishmania donovani [6] = assay: GSK_TCAKS: pIC50 Leishmania donovani viability assay using fluorescence intensity. Assay plates (1536-well) were prepared by adding 30nL per well of compound. For single shot assay, the final compound concentration was 5uM. […] Briefly, eGFP LdBOB axenic amastigotes were harvested, fixed and counted in a CASY cell counter (Roche-Applied Science). A final concentration of 1.5 * 10^5 cells per well were prepared in amastigote media containing 500 U/mL penicillin/streptomycin (Invitrogen) and 6uL was dispensed to each experimental well using a Multidrop Combi dispenser (Thermo Scientific). 6uL of assay media was dispensed to control columns used as reference for 100% compound response. Following incubation for 72 h at 37C, 5% CO2, 2 uL of resazurin was added to each well at a final concentration of 0.5 mM in phosphate buffered saline (PBS) with IGEPAL (Sigma-Aldrich), 0.05% (v/v).; type: functional, organism-based
# NIH3T3 = assay: GSK_TCAKS: pIC50 NIH 3T3 cell line viability assay using luminiscence. Tissue culture surface treated assay plates (1536-well) were used. […] The 100% cells survival control was determined exposing the host-cells to a 0.5% DMSO concentration, whereas the 100% toxicity control was achieved by seeding the cells in presence of Amphotericin B at 50uM. Plates were incubated for four days at 37C, 5% CO2. The assay readout was developed by addition of 5uL of CellTiter-Glo Reagent following the manufacturer's instructions. Luminiscence was measured using a ViewLux.; type: functional, cell-based; conditions: Mus musculus, NIH3T3, 96 h
# [7] = molecular target: Sterol 14-alpha demethylase (Trypanosoma cruzi (strain CL Brener), UniProt Q7Z1V1); assay: GSK_TCAKS: pIC50 CYP51 from Trypanosoma cruzi.; type: functional
# Sterol 14-alpha demethylase, sequence (Q7Z1V1 whole entry): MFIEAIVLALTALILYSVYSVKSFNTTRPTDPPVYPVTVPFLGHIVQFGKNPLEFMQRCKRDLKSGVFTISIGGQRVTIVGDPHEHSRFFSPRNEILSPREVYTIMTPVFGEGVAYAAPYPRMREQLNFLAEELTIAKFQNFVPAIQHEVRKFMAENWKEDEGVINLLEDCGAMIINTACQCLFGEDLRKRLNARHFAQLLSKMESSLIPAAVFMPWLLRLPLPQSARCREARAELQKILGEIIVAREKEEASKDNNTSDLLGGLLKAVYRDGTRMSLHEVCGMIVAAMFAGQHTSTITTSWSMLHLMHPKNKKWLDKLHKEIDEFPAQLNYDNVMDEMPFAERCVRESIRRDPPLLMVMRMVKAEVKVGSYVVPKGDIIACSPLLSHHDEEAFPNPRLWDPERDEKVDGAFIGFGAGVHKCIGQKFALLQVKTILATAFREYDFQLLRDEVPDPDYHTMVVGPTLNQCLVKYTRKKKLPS
# Leishmania donovani [8] = assay: as §1, with “Infected” for “THP-1 Host”, “Percent of infected macrophage cells” for “THP-1 cell count”; type: functional, organism-based, Homo sapiens; conditions: THP-1
# Trypanosoma cruzi [9] = assay: as §2, with “H2C9” for “Trypanosoma cruzi”, “H9c2 Host Cardiomyocytes.” for “Infected Cells.”, “Number” for “percentage”, “H9c2 Host Cardiomyocytes nuclei to determine drug-related cytotoxicity.” for “infected cells per well as a second infection marker.”; type: functional, organism-based, Rattus norvegicus; conditions: H9c2, 4 h
# [10] = test system: Trypanosoma brucei brucei; assay: GSK_TCAKS: pIC50 Trypanosoma brucei viability assay using fluorescence intensity. Assay plates (1536-well) were prepared by dispensing 25nL of compound solution per well using an Echo acoustic dispenser (Labcyte).; type: functional, organism-based; conditions: Lister 427, 2 h
# [11] = GSK_TCAKS: pIC50 HepG2 human cell line viability assay using luminiscence. […] Seeding density was checked to ensure that new mono-layers were not more than 50% confluent at the time of harvesting. Cell suspension was added to 500 mL of the same medium at a final density of 1.2 * 10^5 cells/mL. This cell suspension was dispensed (25 uL, 3000 cells per well) into 384-well clear-bottom plates using a Multidrop Combi dispenser. Prior to addition of the cell suspension, the screening compounds (250 nL) were pre-dispensed into the plates with an Echo liquid handler. Plates were incubated for 48 h at 37C, 5% CO2. After incubation, plates equilibrated at room temperature for 30 min before proceeding to develop the luminescent signal. The signal developer, CellTiter-Glo Reagent, was allowed to equilibrate at room temperature for 30 min and added to the plates (25uL per well) using a Multidrop Combi dispenser. Plates were left for 10 min at room temperature for stabilization and then read using a ViewLux.; type: toxicity, cell-based
# Leishmania donovani [12] = assay: as §1, with “Amastigotes/Macrophages.” for “THP-1 Host Macrophages.”, “Average number of amastigotes per macrophage” for “THP-1”, “cell” for “cell count”; type: functional, organism-based, Homo sapiens; conditions: THP-1
SMILES,IC50 (Trypanosoma cruzi [1]) [µM],IC50 [2] [µM],IC50 (Leishmania donovani [3]) [µM],IC50 (Trypanosoma cruzi [4]) [µM],IC50 (Trypanosoma cruzi [5]) [µM],IC50 (Leishmania donovani [6]) [µM],IC50 (NIH3T3) [µM],IC50 [7] [µM],IC50 (Leishmania donovani [8]) [µM],IC50 (Trypanosoma cruzi [9]) [µM],IC50 [10] [µM],IC50 at 48 h [11] [µM],IC50 (Leishmania donovani [12]) [µM]
CC(C)c1cc(C(=O)N2CCCC(c3cc4ncccc4[nH]3)C2)on1 (stereo not given),2,> 39.8,> 50.1,3.16,1,> 50.1,20,50.1,> 50.1,> 50.1,> 39.8,> 100,> 50.1
O=C(NCc1nnc2n1CCCCC2)c1ccc(-c2ccc(F)cc2)o1,1.41,0.251,> 50.1,1.58,1,> 50.1,> 50.1,79.4,> 50.1,> 50.1,0.126,> 100,> 50.1
Fc1ccc(O[C@H]2C[C@H](NCc3cccc4cn[nH]c34)C2)cc1C(F)(F)F,0.794,10,10,0.2,0.158,20,12.6,0.126,7.94,7.94,7.94,25.1,7.94
c1cc(-c2ncc(-c3ccn[nH]3)s2)ccn1,0.178,> 39.8,> 50.1,0.251,0.251,> 50.1,> 50.1,0.0398,> 50.1,> 50.1,20,> 100,10
CNc1c(C(N)=O)c(-c2ccc3scnc3c2)nn1CC(F)(F)F,0.126,> 39.8,> 50.1,0.251,0.158,> 50.1,20,> 100,> 50.1,> 50.1,31.6,> 100,> 50.1
CNc1cncc(C2CCCN2C(=O)Cc2coc3cc(C)ccc23)n1 (stereo not given),0.158,> 39.8,> 50.1,0.2,0.2,3.16,> 50.1,0.0251,> 50.1,> 50.1,> 39.8,> 100,0.794
CNc1cncc(C2CCCN2C(=O)Cc2ccc3ccccc3c2)n1 (stereo not given),0.0794,> 39.8,> 50.1,0.158,0.158,> 50.1,> 50.1,0.1,> 50.1,> 50.1,> 39.8,> 100,> 50.1
O=C(NCCc1n[nH]c(-c2ccc(F)c(F)c2)n1)C1CCCCC1,2,1,20,2.51,1.58,> 50.1,> 50.1,25.1,> 50.1,> 50.1,0.501,> 100,15.8
COc1ccc(CN2CCCCC2c2nc(-c3cccnc3)no2)cc1 (stereo not given),0.794,> 39.8,> 50.1,0.794,0.631,> 50.1,> 50.1,0.2,> 50.1,> 50.1,> 39.8,> 100,> 50.1
COc1ccc(C(=O)N2CCC(Nc3cccnc3)C2)c(OC)n1 (stereo not given),0.316,> 39.8,> 50.1,0.794,0.794,15.8,> 50.1,0.0631,> 50.1,> 50.1,> 39.8,> 100,> 50.1

# Source: ChEMBL document CHEMBL3430912, “GSK Tres Cantos Anti-Kinetoplastid Screening (TCAKS) Data”
